{"source": "paper PMC12523843", "about": "“Kuwanon A Targeted YWHAB in Hepatocellular Carcinoma Cells to Inhibit the Raf/MEK/ERK Signaling Pathway” (Cells, 2025)", "key": {"[1]": {"test_system": "HCC cells (MHCC97 H and SMMC 7721)", "assay": "Colony formation assay", "assay_type": "cell-based, human", "experimental": "Using a colony formation assay, the effect of KA on the colony-forming ability of HCC cells was evaluated. A total of 1000–2000 cells, along with KA, were seeded into each well of a six-well plate. During this period, fresh culture media and KA were replaced multiple times. After 2 to 3 weeks of incubation, the colonies were stained with crystal violet (Beyotime, Shanghai, China) and subsequently quantified in each well using ImageJ 1.52a software."}, "MHCC97 H cells": {"test_system": "MHCC97 H cells", "assay": "MTT IC50 determination in MHCC97 H", "assay_type": "cell-based, human", "details": "Homo sapiens, MHCC97H", "experimental": "Cell viability was assessed using MTT experiments. Cells, together with KA, were seeded into 96-well plates at a density of 2000 cells per well with three replicates per condition. DMSO was used as a control. At designated time points, 20 μL of MTT (Sigma, St. Louis, MO, USA) solution was added to each well and incubated for 3 h. After removing the culture medium, 200 μL of DMSO was added to dissolve the formazan crystals. The absorbance was then measured using a microplate reader at a wavelength of 560 nm."}, "[2]": {"test_system": "HCC cells (MHCC97 H and SMMC 7721)", "assay": "Transwell migration (without Matrix-Gel) and invasion (with Matrix-Gel) assay", "assay_type": "cell-based, human", "experimental": "The Transwell assay measured the migration and invasion of cells by calculating the number of cells that passed through the material. Prior to the Transwell migration assay, cells were serum-starved in FBS-free culture medium for 24 h. The cells were then detached using trypsin, washed 1–2 times with PBS, and resuspended in DMEM. Approximately 50,000–100,000 cells were seeded into the upper chamber of the Transwell insert. The lower chamber was filled with 600 μL of complete medium containing the test compound. […] After incubation, the migrated cells on the lower membrane surface were fixed with 4% paraformaldehyde (PFA) and stained with 0.1% crystal violet. Non-migrated cells remaining in the upper chamber were carefully removed with a cotton swab. Finally, the stained cells were visualized under a microscope. If matrix gel was needed, it should be added according to the instructions (Beyotime, Shanghai, China) before the cells were seeded."}, "[3]": {"test_system": "MHCC97 H cells injected into the liver", "assay": "Orthotopic hepatocellular carcinoma xenograft survival", "assay_type": "in vivo, BALB/c-nu mice", "details": "30 mg/kg intraperitoneal, every two days, 45 days", "source_text": "Thirty-six female BALB/c-nu mice, four weeks old (supplied by Slike Jingda Laboratory Animal Co., Ltd., Changsha, China; Animal qualification number: SCXK-2019-0004), were housed in an SPF room. […] Therefore, female mice were selected for this study; 12 mice were used to establish the hepatocellular carcinoma xenografts. MHCC97 H cells (1 × 10^5 cells) were slowly injected into the left lobe of the mouse liver after being anesthetized with isoflurane. Three days later, the mice received intraperitoneal injections of KA (30 mg/kg) every two days for 45 days. Control mice were administered DMSO injections. Recorded the survival status of the animals. Prior to liver collection, the mice were anesthetized with isoflurane to minimize pain and euthanized by cervical dislocation. Ethics approval serial number: IACUC-20240613-03. Animal experiments were conducted in accordance with the Guide for the Care and Use of Laboratory Animals (Ministry of Science and Technology of China, 2006)."}, "[4]": {"assay": "Renal and liver function tests in treated mice", "assay_type": "in vivo, BALB/c-nu mice", "details": "KA-treated mice compared to DMSO controls"}, "CDK and cyclin proteins": {"test_system": "CDK and cyclin proteins", "assay": "Western blot of CDK and cyclin proteins", "assay_type": "cell-based, human", "details": "48 h, MHCC97 H and SMMC 7721", "experimental": "(§1) Cells were harvested using a cell scrape and washed three times with PBS buffer, then lysed on ice in RIPA lysis buffer (Beyotime, Shanghai, China). Protein concentration was determined using a BCA protein assay kit (Beyotime, Shanghai, China). Subsequently, 60 µg of protein was mixed with 5× loading buffer and heated in a 100 °C water bath for 15 min. The samples were subjected to SDS-PAGE electrophoresis, followed by transfer onto a PVDF membrane (Millipore, Darmstadt, Germany). The membrane was blocked with 5% BSA for 2 h at room temperature and incubated sequentially with primary and HRP-conjugated secondary antibodies. Finally, signal detection was performed using an ECL detection system (Clinx, Shanghai, China)."}, "[5]": {"test_system": "N-cadherin and E-cadherin", "assay": "Western blot of EMT markers", "assay_type": "cell-based, human", "details": "48 h", "experimental": "as §1"}, "[6]": {"target": "T1, Raf1 and YWHAB interaction (Homo sapiens, UniProt P31946)", "T1 construct": "host or cells: HEK 293T", "T1 sequence (P31946 1-246)": "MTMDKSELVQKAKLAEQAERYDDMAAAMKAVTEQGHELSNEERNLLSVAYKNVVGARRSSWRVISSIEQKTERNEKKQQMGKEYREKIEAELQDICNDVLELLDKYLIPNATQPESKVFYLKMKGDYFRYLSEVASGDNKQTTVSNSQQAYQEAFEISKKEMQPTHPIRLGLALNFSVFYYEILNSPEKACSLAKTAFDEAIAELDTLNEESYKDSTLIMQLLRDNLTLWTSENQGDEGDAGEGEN", "assay": "Co-immunoprecipitation of MYC-YWHAB and FLAG-Raf 1 in HEK 293T", "assay_type": "cell-based", "details": "25 μM and 30 μM, HEK 293T overexpressing MYC-YWHAB and FLAG-Raf 1"}, "YWHAB": {"target": "T2, YWHAB (Homo sapiens, UniProt P31946)", "T2 sequence (P31946 1-246)": "T1 sequence (P31946 1-246)", "assay": "Epoxy-activated Sepharose 6B pull-down", "assay_type": "binding", "parameters": "host or cells: HEK 293T", "details": "KA immobilized on Sepharose 6B, HEK 293T overexpressing YWHAB", "experimental": "Epoxy-activated Sepharose 6B (Cytia, Washington, DC, USA) affinity media was used to bind KA molecules following the media’s absorbency swelling. The Sepharose 6B media was co-incubated with KA or DMSO and gently agitated overnight at room temperature. The product was then thoroughly washed through at least three cycles. Any remaining active groups were blocked using 1 M ethanolamine, incubated for 4 h at 37 °C. The 6B media, now bound with KA or DMSO, were further incubated with the cell lysate sample overnight, with gentle agitation at 4 °C. The media was washed again through a minimum of three cycles. A suitable amount of loading buffer was added, and the samples were heated in a 100 °C water bath for 15 min. The resulting supernatant was then ready for use in SDS-PAGE electrophoresis."}, "[7]": {"details": "YWHAB-overexpressing HCC cells, KA 15 μM"}}, "note": "Where two headings read alike, the source gives them in different places."}
{"smiles": "CC(C)=CCc1c(-c2ccc(O)c3c2OC(C)(C)C=C3)oc2cc(O)cc(O)c2c1=O", "note": "[KA, Kuwanon A]", "values": [{"measurement": "in vitro colony formation ability under YWHAB overexpression", "setting": "[1]; [7]", "result": "failed to inhibit the in vitro colony formation ability"}, {"measurement": "colony formation ability", "setting": "[1]; indicated concentrations of KA, vs DMSO", "result": "significantly reduced colony formation ability"}, {"measurement": "IC50", "setting": "MHCC97 H cells; MTT method, read-out: IC50 in MHCC97 H (screen)", "result": "< 20", "unit": "µM"}, {"measurement": "IC50", "setting": "MHCC97 H cells; MTT, gradient concentrations, 48 h, read-out: IC50 in MHCC97 H", "result": 8.4, "unit": "µM"}, {"measurement": "migration/invasion under YWHAB overexpression (wound healing and Transwell)", "setting": "[2]; YWHAB-overexpressing HCC cells compared to normal tumor cells, KA 15 μM, 48 h", "result": "less effect of KA on the migration/invasion"}, {"measurement": "invasive capacity of HCC cells (Transwell)", "setting": "[2]; with Matrix-Gel", "result": "inhibited the invasive capacity of HCC cells"}, {"measurement": "number of HCC cells migrating through the polycarbonate membrane (Transwell)", "setting": "[2]; without Matrix-Gel", "result": "significant decrease in the number of HCC cells migrating"}, {"measurement": "survival time", "setting": "[3]", "result": "significantly extended"}, {"measurement": "renal and liver function tests (ALB, total protein, GOT/AST, GPT/ALT)", "setting": "[4]", "result": "no significant changes"}, {"measurement": "cell cycle-related proteins (Western blot)", "setting": "CDK and cyclin proteins", "result": "downregulation of corresponding cell cycle-related proteins"}, {"measurement": "E-cadherin level (Western blot)", "setting": "[5]; MHCC97 H and SMMC 7721", "result": "upregulation of E-cadherin"}, {"measurement": "N-cadherin level (Western blot)", "setting": "[5]; MHCC97 H and SMMC 7721", "result": "downregulation of N-cadherin"}, {"measurement": "N-cadherin/E-cadherin ratio under YWHAB overexpression", "setting": "[5]; [7]", "result": "minimal changes"}, {"measurement": "amount of YWHAB interacting with Raf1 (co-immunoprecipitation)", "setting": "[6]", "result": "reduction in the amount of YWHAB interacting with Raf1"}, {"measurement": "interaction with YWHAB (pull-down)", "setting": "YWHAB", "result": "direct interaction"}]}
